{
  "source": "ChEMBL document CHEMBL1201862",
  "about": "“PubChem BioAssay data set” (2004)",
  "key": {"[1]": {"target": "T1, Methionyl-tRNA synthetase, putative (Trypanosoma brucei brucei, UniProt Q38C91)", "T1 sequence (Q38C91 whole entry)": "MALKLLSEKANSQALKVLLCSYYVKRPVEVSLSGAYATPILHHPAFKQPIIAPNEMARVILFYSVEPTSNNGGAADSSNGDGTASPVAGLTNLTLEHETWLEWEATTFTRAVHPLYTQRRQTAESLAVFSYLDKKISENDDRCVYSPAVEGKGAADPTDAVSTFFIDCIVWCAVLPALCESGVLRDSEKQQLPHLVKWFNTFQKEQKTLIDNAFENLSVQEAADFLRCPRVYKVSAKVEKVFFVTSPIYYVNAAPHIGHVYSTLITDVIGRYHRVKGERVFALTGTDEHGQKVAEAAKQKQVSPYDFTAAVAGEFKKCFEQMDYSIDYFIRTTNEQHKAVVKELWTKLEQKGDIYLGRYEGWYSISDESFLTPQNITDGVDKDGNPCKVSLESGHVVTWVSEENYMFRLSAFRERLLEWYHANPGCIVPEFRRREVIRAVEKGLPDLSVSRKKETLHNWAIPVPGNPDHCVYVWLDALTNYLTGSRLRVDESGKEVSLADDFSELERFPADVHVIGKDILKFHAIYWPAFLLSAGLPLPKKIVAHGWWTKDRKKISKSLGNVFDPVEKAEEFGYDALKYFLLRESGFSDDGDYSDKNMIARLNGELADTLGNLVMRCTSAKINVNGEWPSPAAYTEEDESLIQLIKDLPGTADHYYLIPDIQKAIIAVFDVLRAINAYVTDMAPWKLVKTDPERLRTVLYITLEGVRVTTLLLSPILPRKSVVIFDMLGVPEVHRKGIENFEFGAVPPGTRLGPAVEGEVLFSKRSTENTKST", "format": "functional, Trypanosoma brucei brucei strain 927/4 GUTat10.1"}, "[2]": {"target": "T1, Methionyl-tRNA synthetase, putative", "format": "functional, Trypanosoma brucei brucei strain 927/4 GUTat10.1", "remark": "listed apart in the source"}, "[3]": {"experiment": "Counterscreen for inhibitors of Trypanosoma brucei methionyl tRNA synthetase (MetRS): Luminescence-based cell-based high throughput dose response assay to identify compounds that are cytotoxic to Jurkat human T lymphocyte cells.", "format": "functional"}, "H9c2": {"test_system": "H9c2", "experiment": "cells", "format": "functional, cell-based", "conditions": "Rattus norvegicus, H9c2, Myocardium"}, "[4]": {"experiment": "inhibitors of clade B AD8 Env fusion, dose response, cell-based, cherry-pick (AID 652062);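 further: potency is for inhibitors of fusion seen as a drop in luminescence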", "format": "functional"}, "[5]": {"experiment": "Luminescence Cell-Based Dose Retest to Confirm Inhibitors of Cancer Stem Cells. [Related pubchem assays (depositor defined):AID2717, AID2721]", "format": "functional", "conditions": "Homo sapiens"}, "[6]": {"experiment": "inhibitors of HIV Env-driven cell fusion, dose response, cherry-pick (AID 652057)", "format": "functional, cell-based"}, "[7]": {"experiment": "ZM109 Env clade C HIV-1 fusion inhibitors, dose response, HeLa effector, CEM target cells, luciferase, cherry-pick (AID 652058)", "format": "functional, cell-based"}, "[8]": {"experiment": "CEM21 lymphoblast cell cytotoxicity, dose response, cytotoxicity control for viral fusion inhibitor project, CellTiter-Glo luminescence, cherry-picked (AID 652042);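 further: potency for signal decrease meaning cytotoxicity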", "format": "functional, cell-based"}, "[9]": {"experiment": "off-target signal loss in HeLa-CEM21 co-culture – HeLa F-luc CTL cells, cherry-picked, counter-screen for HIV-1 Env fusion inhibitor project, dose response (AID 652040);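 further: potency for signal decrease marking cytotoxic or nonspecific inhibition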", "format": "functional, cell-based"}, "[10]": {"experiment": "miR-122 activators in hepatoma reporter cells, dose response, cell-based, Huh7 psiCHECK-miR122, Renilla luciferase, cherry-picked (AID 651956);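 further: huh7 hepatoma cells stably carrying a psiCHECK-2 miR-122 sensor plasmid; renilla luciferase signal reporting endogenous miR-122 activity after 48 h compound exposure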", "format": "functional"}, "[11]": {"experiment": "intracellular Trypanosoma cruzi inhibitors in host cells – cell-based, plate reader, cherry-pick samples, set 3, dose response (AID 651818);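 further: compounds incubated with infected cells for about four days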", "format": "functional"}, "[12]": {"target": "T2, DNA repair and recombination protein RAD54-like (Homo sapiens, UniProt Q92698)", "T2 sequence (Q92698 whole entry)": "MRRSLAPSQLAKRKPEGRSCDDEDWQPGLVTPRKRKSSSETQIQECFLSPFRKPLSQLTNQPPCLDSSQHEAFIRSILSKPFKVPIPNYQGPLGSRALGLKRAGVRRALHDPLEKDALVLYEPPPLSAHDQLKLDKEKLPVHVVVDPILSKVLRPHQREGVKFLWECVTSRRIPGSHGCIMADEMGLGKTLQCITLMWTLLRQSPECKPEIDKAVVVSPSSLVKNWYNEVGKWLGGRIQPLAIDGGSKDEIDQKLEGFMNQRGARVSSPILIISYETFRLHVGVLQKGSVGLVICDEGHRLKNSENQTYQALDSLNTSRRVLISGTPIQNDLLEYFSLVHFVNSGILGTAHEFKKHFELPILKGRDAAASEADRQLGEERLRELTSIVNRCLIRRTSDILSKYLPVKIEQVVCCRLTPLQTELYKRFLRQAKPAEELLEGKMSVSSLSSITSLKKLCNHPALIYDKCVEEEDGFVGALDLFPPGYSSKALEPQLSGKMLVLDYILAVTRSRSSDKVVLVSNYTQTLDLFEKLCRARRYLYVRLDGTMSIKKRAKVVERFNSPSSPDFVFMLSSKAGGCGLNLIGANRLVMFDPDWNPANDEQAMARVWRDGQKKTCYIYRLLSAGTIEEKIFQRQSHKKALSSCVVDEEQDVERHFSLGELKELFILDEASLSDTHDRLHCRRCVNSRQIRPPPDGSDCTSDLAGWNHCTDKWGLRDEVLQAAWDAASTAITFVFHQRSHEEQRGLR", "experiment": "inhibitors of human RAD54 branch migration, confirmation, biochemical, fluorescence, cherry-picked samples, dose series (AID 651657)", "format": "functional"}},
  "note": "Calls of active or inactive are those of the source.",
  "data": [
    {"compound": "CN(C)S(=O)(=O)c1cccc(NC(=O)c2ccc(-n3cncn3)c([N+](=O)[O-])c2)c1", "values": [
      {"measurement": "IC50", "setting": "[1]", "value": "4.49 µM (active)"},
      {"measurement": "IC50", "setting": "[2]", "value": "9.02 µM (active)"},
      {"measurement": "IC50", "setting": "[3]", "value": "83.3 µM (inactive)"}
    ]},
    {"compound": "O=C(OC(C(=O)c1c[nH]c2ccccc12)c1ccccc1)c1cnccn1", "note": "(stereo not given)", "values": [
      {"measurement": "IC50", "setting": "[1]", "value": "32.3 µM (inactive)"},
      {"measurement": "IC50", "setting": "[2]", "value": "59.3 µM (inactive)"},
      {"measurement": "IC50", "setting": "[3]", "value": "83.3 µM (inactive)"}
    ]},
    {"compound": "COc1ccc(NC(=O)CCc2nc(O)c3ccccc3n2)cc1S(=O)(=O)N1CCCCC1", "values": [
      {"measurement": "IC50", "setting": "H9c2", "value": "> 79 µM (inactive)"}
    ]},
    {"compound": "CC(C)C[C@H](CO)N(Cc1ccccc1)S(=O)(=O)N(Cc1ccccc1)[C@@H](CO)CC(C)C", "values": [
      {"measurement": "AC50", "setting": "[4]", "value": "8.16 µM (active)"},
      {"measurement": "AC50", "setting": "[5]", "value": "3.47 µM (active)"},
      {"measurement": "AC50", "setting": "[6]", "value": "2.8 µM (active)"},
      {"measurement": "AC50", "setting": "[7]", "value": "3.38 µM (active)"},
      {"measurement": "AC50", "setting": "[8]", "value": "9.89 µM (active)"},
      {"measurement": "AC50", "setting": "[9]", "value": "12.4 µM (active)"}
    ]},
    {"compound": "O=C(O)c1ccc2c(c1)S(=O)(=O)c1cc(N3CCN(c4cnccn4)CC3)ccc1C2=O", "values": [
      {"measurement": "IC50", "setting": "H9c2", "value": "> 79 µM (inactive)"}
    ]},
    {"compound": "C[C@@H]1CN([C@@H](C)CO)S(=O)(=O)c2ccc(/C=C/c3ccccc3)cc2O[C@@H]1CN(C)C(=O)c1cccnc1", "values": [
      {"measurement": "AC50", "setting": "[10]", "value": "3.93 µM (active)"}
    ]},
    {"compound": "C[C@@H]1CN([C@H](C)CO)C(=O)c2cccc(NC(=O)c3ccc(-c4nccs4)cc3)c2O[C@@H]1CN(C)Cc1ccc(C(=O)Nc2ccccc2N)cc1", "values": [
      {"measurement": "AC50", "setting": "[11]", "value": "1.69 µM (active)"}
    ]},
    {"compound": "C[C@@H]1CN([C@H](C)CO)C(=O)c2cc(NC(=O)NC3CCCCC3)ccc2O[C@H]1CN(C)Cc1ccc(Oc2ccccc2)cc1", "values": [
      {"measurement": "AC50", "setting": "[11]", "value": "6.06 µM (active)"}
    ]},
    {"compound": "COc1ccc(S(=O)(=O)N(C)C[C@H]2Oc3c(NC(=O)Nc4ccc(C(F)(F)F)cc4)cccc3C(=O)N([C@@H](C)CO)C[C@@H]2C)cc1", "values": [
      {"measurement": "AC50", "setting": "[11]", "value": "5.69 µM (active)"}
    ]},
    {"compound": "Cc1noc(C)c1S(=O)(=O)Nc1ccc2c(c1)CC(=O)N([C@H](C)CO)C[C@@H](C)[C@@H](CN(C)Cc1ccc(Oc3ccccc3)cc1)O2", "values": [
      {"measurement": "AC50", "setting": "[11]", "value": "5.85 µM (active)"}
    ]},
    {"compound": "CC(CCCN1CCCC1)Nc1ccnc2cc(Cl)ccc12", "note": "(stereo not given) [Chloroquine-pyrolidinyl]", "values": [
      {"measurement": "AC50", "setting": "[12]", "value": "35.7 µM (active)"}
    ]}
  ]
}
